# Columns and labels:
# Test in all cases: relative viability (nuclei count vs DMSO), 5 days (fraction); higher = more cells survive
# [1] = compound: C[C@]1(O)C[C@@H](c2nc(-c3ccc4ccc(-c5ccccc5)nc4c3)c3c(N)nccn32)C1 [Linsitinib] + COc1cc2c(Oc3ccc(NC(=O)C4(C(=O)Nc5ccc(F)cc5)CC4)cc3F)ccnc2cc1OCCCN1CCOCC1 [Foretinib] (partner 0.25 µM)
# Procedure, shortened: (§1)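 Dosing by pin tool came one day after lung cancer cell lines were seeded in 1536-well plates, using either one drug or a fixed anchor-drug dose plus five library-drug doses (not always all listed) in √10 steps. After 5 days, nuclei were counted on 4× images. Relative viability is treated-well nuclei count divided by vehicle-well nuclei count, and values are medians of duplicate plates.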
# [2] = compound: C[C@]1(O)C[C@@H](c2nc(-c3ccc4ccc(-c5ccccc5)nc4c3)c3c(N)nccn32)C1 [Linsitinib] + NC(=O)Nc1cc(-c2cccc(F)c2)sc1C(=O)N[C@H]1CCCNC1 [AZD7762] (partner 0.2 µM)
# Procedure, shortened: as §1
# [3] = compound: Cc1ccc(C(=O)N(CCCN)[C@@H](c2nc3cc(Cl)ccc3c(=O)n2Cc2ccccc2)C(C)C)cc1 [Ispinesib] + Cc1nc(Nc2ncc(C(=O)Nc3c(C)cccc3Cl)s2)cc(N2CCN(CCO)CC2)n1 [Dasatinib] (partner 0.075 µM)
# Procedure, shortened: as §1
# [4] = compound: Cc1ccc(C(=O)N(CCCN)[C@@H](c2nc3cc(Cl)ccc3c(=O)n2Cc2ccccc2)C(C)C)cc1 [Ispinesib] + NC(=O)Nc1cc(-c2cccc(F)c2)sc1C(=O)N[C@H]1CCCNC1 [AZD7762] (partner 0.2 µM)
# Procedure, shortened: as §1
Cell Line,relative viability ([1]; first compound 0.01 µM),relative viability ([1]; first compound 0.03162 µM),relative viability ([1]; first compound 0.1 µM),relative viability ([1]; first compound 0.3162 µM),relative viability ([1]; first compound 1 µM),relative viability ([2]; first compound 0.01 µM),relative viability ([2]; first compound 0.03162 µM),relative viability ([2]; first compound 0.1 µM),relative viability ([2]; first compound 0.3162 µM),relative viability ([2]; first compound 1 µM),relative viability ([3]; first compound 0.001 µM),relative viability ([3]; first compound 0.003162 µM),relative viability ([3]; first compound 0.01 µM),relative viability ([3]; first compound 0.03162 µM),relative viability ([3]; first compound 0.1 µM),relative viability ([4]; first compound 0.001 µM),relative viability ([4]; first compound 0.003162 µM),relative viability ([4]; first compound 0.01 µM),relative viability ([4]; first compound 0.03162 µM),relative viability ([4]; first compound 0.1 µM)
NCI-H1915,1.13,1.08,1.08,0.986,0.923,0.661,0.641,0.785,0.748,0.538,0.304,0.312,0.38,0.25,0.137,0.728,0.687,0.748,0.451,0.112
NCI-H647,1.14,1.23,1.19,,1.17,0.467,0.504,0.493,0.212,0.331,0.176,0.173,0.122,0.0516,0.0877,0.662,0.564,0.451,0.185,0.172
NCI-H322M,1,0.77,0.989,0.916,0.923,0.575,0.411,0.485,0.49,0.414,0.271,0.244,0.233,0.252,0.288,0.561,0.654,0.464,0.494,0.484
NCI-H2170,0.994,1.05,0.974,0.773,0.963,0.918,0.959,0.768,,0.68,0.639,0.583,0.58,0.294,0.201,0.897,0.88,0.909,0.225,0.17

# From the supplement of paper PMC10307832
